Reference: patent EP0586592B1, “INSULIN AND AMYLIN CONTAINING COMPOSITION FOR THE TREATMENT OF INSULIN DEFICIENT MAMMALS” (AMYLIN PHARMACEUTICALS, INC., priority 1991, dated 2000)

Test system: rat soleus muscle
Assay type: cell-based
Conditions: 4 h
Protocol: Male Harlan Sprague Dawley rats of approximately 200 g mass were used in order to maintain soleus muscle mass less than 40 mg. The animals were fasted for 4 hours prior to sacrifice by decapitation. The skin was stripped from the lower limb which was then pinned out on cork board. The tendo achilles was cut just above os […]. gastrocnemius reflected out from the posterior aspect of the tibia. M. soleus, a small 15-20 mm long, 0.5 mm thick flat muscle on the bone surface of m. gastrocnemius was then stripped clear and the perimysium cleaned off using fine scissors and forceps. M. soleus was then split into equal parts using a blade passed antero-posteriorly through the belly of the muscle to obtain a total of 4 muscle strips from each animal. […] Methods used to determine the nature and purity of rat and human amylin included quantitative amino acid analysis, gas phase amino acid sequencing, reverse phase HPLC and fast-atom-bombardment mass spectrometry. […] The concentration of human amylin present in the medium at the end of the incubation was determined by radioimmunoassay in surfactant-containing buffer. For both human and rat amylin, the actual mass added to the incubation medium was determined by quantitative amino-acid analysis. […] The remaining glycogen was redissolved in 1 mL water and 4 mL scintillation fluid and counted for ^14C. […]

CC[C@H](C)[C@H](NC(=O)[C@H](C)NC(=O)CNC(=O)[C@H](Cc1ccccc1)NC(=O)[C@H](CC(N)=O)NC(=O)[C@H](CC(N)=O)NC(=O)[C@H](CO)NC(=O)[C@H](CO)NC(=O)[C@H](Cc1c[nH]cn1)NC(=O)[C@@H](NC(=O)[C@H](CC(C)C)NC(=O)[C@H](Cc1ccccc1)NC(=O)[C@H](CC(N)=O)NC(=O)[C@H](C)NC(=O)[C@H](CC(C)C)NC(=O)[C@H](CCCNC(=N)N)NC(=O)[C@H](CCC(N)=O)NC(=O)[C@@H](NC(=O)[C@H](C)NC(=O)[C@@H]1CSSC[C@H](NC(=O)[C@@H](N)CCCCN)C(=O)N[C@@H](CC(N)=O)C(=O)N[C@@H]([C@@H](C)O)C(=O)N[C@@H](C)C(=O)N[C@@H]([C@@H](C)O)C(=O)N1)[C@@H](C)O)C(C)C)C(=O)N[C@@H](CC(C)C)C(=O)N[C@@H](CO)C(=O)N[C@@H](CO)C(=O)N[C@H](C(=O)N[C@@H](CC(N)=O)C(=O)N[C@H](C(=O)NCC(=O)N[C@@H](CO)C(=O)N[C@@H](CC(N)=O)C(=O)N[C@H](C(=O)N[C@@H](Cc1ccc(O)cc1)C(N)=O)[C@@H](C)O)C(C)C)[C@@H](C)O [human amylin]
EC50: 0.438 nM
